The values that follow are results of earlier work, collected in publication PMC6325233, “A Novel Actin Binding Drug with In Vivo Efficacy” (Antimicrobial Agents and Chemotherapy, 2018).

The conditions of the data set: at doses required for efficacious effect; cited from earlier work. On the procedure: Natural products with in vitro antifungal properties that target the actin cytoskeleton were previously reported ([51]). […] Occidiofungin, on the other hand, is well tolerated at 5 mg/kg or 20 mg/kg when administered intravenously or subcutaneously, respectively ([22], [25]). This dose is much higher than the MIC of occidiofungin against several fungal pathogens. ...

As for `COC(CC1OC(=O)CC(O)C/C=C/C(=O)C(C)C(OC)c2coc(n2)-c2coc(n2)-c2coc(n2)/C=C/CCC1C)C(C)CCC(=O)C(C)C(C/C=C/N(C)C=O)OC` (centres unmarked) [halichondramide], the toxicity in animals result is listed as “limited by their toxicity in animals”.
For the compound jasplakinolide, the toxicity in animals result is reported as “limited by their toxicity in animals”.
